The values below come from US11845770B2, “Ascaroside derivatives and methods of use” (California Institute of Technology, priority 2019, dated 2023).

“Also recorded” adds a separate entry of the source.

Type in all cases: cell-based
In assay [1] the test system is THP1 human macrophage cells. Description: Stimulation of THP-1 cells, IL-6 at 6 or 36 hours post stimulation. The settings on record: THP1-derived macrophages, IFNγ + LPS, 0.1 to 500 μM, FIG. 9. Here is the method: Human immortalized monocytic THP-1 cells were maintained in phenol red free RPMI 1640 medium containing 10% (v/v) fetal bovine serum (FBS), 2 mM L-glutamine, penicillin (100 units/mL), streptomycin (100 μg/mL), amphotericin B (2.5 μg/mL), and 50 μM beta-mercaptoethanol (BME) at 37° C. with 5% (v/v) CO2. THP-1 cells were seeded in 1 mL of THP-1 medium (cell culture medium containing 10% (v/v) FBS, 2 mM L-glutamine, penicillin (100 units/mL), streptomycin (100 μg/mL), amphotericin B ([…]), and 50 μM BME)/well at a density of 1×10^6 cells/mL in six-well plates. Cells were differentiated by adding 10, 50, or 100 nM phorbol 12-myristate 13-acetate (PMA) to each well before incubating cells for 5.5 h at 37° C. with 5% (v/v) CO2. Without removing the media, different concentrations (either 0, 0.1, 1.0, 10, 100, 200, or 500 μM) of the compound were added to each well. Cells were stimulated, within 30 min by adding 20 ng/mL interferon gamma (IFNγ) and 100 ng/mL lipopolysaccharide (LPS) to each well. Following stimulation, the THP-1 cells were incubated for 6 or 36 hours at 37° C. with 5% (v/v) CO2. Supernatant was collected and stored at −80° C. until use.
IL-6 released from supernatants collected at 6 or 36 hours post stimulation with IFNγ and LPS were measured using the AlphaLISA Human IL-6 detection kit.

The test system of assay [2] is human naïve T cells. As to the kind of experiment: Stimulation of blood derived naïve T cells with Der p1 (house dust mite) antigen. The settings on record: at 100 μM; human T cells, Der p1 antigen; FIG. 15. How it is done: Naïve T cells from peripheral blood samples were collected and processed using MACSxpress® Whole Blood Pan T Cell Isolation Kit (Miltenyi Biotec), according to the manufacturer's protocol. Isolated naïve T cells were cultured in RPMI medium supplemented with 5% Fetal Bovine Serum (FBS) at 37° C. with 5% (v/v) CO2. T cells were seeded in 24 well plates at a density of 0.5×10^6 cells per well. The cells were pre-treated with the compounds (0, 0.1, 1.0, 10, 100 μM) for 1 hour prior to stimulation. Cells were stimulated with […] of Dermatophagoides pteronyssinus (Der p1) antigen. After 48 hours, fresh […] of Der p1 was added and continued incubating for a further 72 hours at 37° C. with 5% (v/v) CO2. Overall T cells were stimulated with […] of Der p1 antigen for 5 days before supernatants were collected and stored at −80° C. until quantitative detection assays are performed.
Human Interleukin-4 (IL-4), Interleukin-5 (IL-5), Interleukin-6 (IL-6), Interleukin-8 (IL-8), Interleukin-13 ([…]), Interleukin-23 (IL-23), and Interferon gamma (IFNγ) released from supernatants collected post stimulation were measured using Human Magnetic Luminex® Assay Kit. Human Transforming Growth Factor beta (TGFβ) was measured using an Enzyme-Linked Immunosorbent Assay (ELISA)-based analysis.

Assay [3] relates to EPC2 human esophageal keratinocytes. Description: Stimulation of EPC2-hTERT human esophageal keratinocytes with Poly(I:C). Conditions: 24 hours; for percent inhibition relative to Stimulated of TSLP expression: FIG. 19A; for percent inhibition relative to Stimulated of IL-6 expression: FIG. 19B; for percent inhibition relative to Stimulated of MCP-1 expression: FIG. 19C. How it is done:
EPC2-hTERT (EPC2) cells were maintained in supplemented keratinocyte serum-free medium (KSFM) with 0.09 mM calcium chloride containing epidermal growth factor (5 ng/mL), bovine pituitary extract ([…]), penicillin (100 units/mL), and streptomycin ([…]) (ThermoFisher #17005042) at 37° C. with 5% (v/v) CO2. EPC2 cells were seeded in 12-well plates at 0.55×10^6 cells per well in supplemented KSFM at 37° C. with 5% (v/v) CO2 and after 6 hours the old media is removed and changed with fresh media. After overnight incubation, the old media is changed to supplemented KSFM containing 1.8 mM calcium chloride and incubated for 72 hours at 37° C. with 5% (v/v) CO2. After the old media is removed and fresh supplemented KSFM containing 1.8 mM calcium chloride is added, the cells are pre-treated with different concentrations of compounds (0, 1, 10, 100, 500, 1000 μM) for 1 hour prior to stimulation. To stimulate the cells, Poly (I:C) (Tocris #4287) is added to the wells at […] concentration without removing the media and incubated for 24 hours at 37° C. with 5% (v/v) CO2. Supernatants are collected in Eppendorf tubes, centrifuged in a microfuge at maximum speed for 10 minutes at 4° C., and the centrifuged supernatants stored at −80° C. until quantitative detection assays are performed. Human Interleukin-6 (IL-6), Monocyte Chemoattractant Protein-1 (MCP-1), and Thymic stromal lymphopoietin (TSLP) released from supernatants collected post stimulation were measured using the AlphaLISA detection kit for human IL-6, MCP-1, and TSLP, respectively.

The test system of assay [4] is BEAS-2B human lung epithelial cells. As to the kind of experiment: Stimulation of BEAS-2B human lung epithelial cells, cytokine expression. Conditions: 20 ng/mL IL-1β, 48 h; for percent inhibition relative to Stimulated of Eotaxin expression: FIG. 12, FIG. 13. Here is the method: BEAS-2B cells were maintained in Bronchial Epithelial Cell Growth Basal Medium (BEBM) containing all the recommended supplements for the Bronchial Epithelial Cell Growth Medium (BEGM; Lonza #CC-4175) and allowed to attain approximately 70% confluency with media changed every 2-3 days at 37° C. with 5% (v/v) CO2. Tissue culture flasks/vessels were pre-coated with a mixture of 0.01 mg/mL fibronectin (Sigma), 0.03 mg/ml bovine collagen type I (Sigma) and 0.01 mg/mL bovine serum albumin dissolved in the BEBM. BEAS-2B cells were seeded with 0.5 ml of 1×10^6 cells/mL in BEGM per well on 24-well plates and incubated overnight at 37° C. with 5% (v/v) CO2. The cells are pre-treated with different concentrations of compounds (0, 1.0, 10, 100, 1000 μM) for 1 hour prior to stimulation. To stimulate the cells, 10 ng/mL of Interleukin-1 beta (IL-1β), 10 ng/mL of Lipopolysaccharides (LPS), or 20 ng/mL of IL-1$ is added to the wells without removing the media and incubated for 48 hours at 37° C. with 5% (v/v) CO2. Supernatants were collected and stored at −80° C. until quantitative detection assays are performed. Human Eotaxin, Monocyte Chemoattractant Protein-1 (MCP-1), Interleukin-6 (IL-6), Interleukin-25 (IL-25), Interleukin-33 (IL-33), Thymic stromal lymphopoietin (TSLP), and Granulocyte-Macrophage Colony-Stimulating Factor (GM-CSF) released from supernatants collected post stimulation were measured using Human Magnetic Luminex® Assay Kit. Human CCL5/RANTES was measured using an Enzyme-Linked Immunosorbent Assay (ELISA)-based analysis.

On to `C[C@H](CCC(O)CC(=O)OC(C)(C)C)O[C@@H]1O[C@@H](C)[C@H](O)C[C@H]1O` (stereo partly drawn) [Compound 9, tert-butyl (6R)-6-(((2R,3R,5R,6S)-3,5-dihydroxy-6-methyltetrahydro-2H-pyran-2-yl)oxy)-3-hydroxyheptanoate], for which the “percent inhibition relative to Control of IL-6 levels secreted” value (“percent inhibition relative to Control” for short) in assay [1] is recorded as “inhibited IL-6 expression in statistically significant, dose-dependent manner”.

On to `C[C@H](CC/C=C/C(=O)OCc1ccccc1)O[C@@H]1O[C@@H](C)[C@H](O)C[C@H]1O` [Compound 4, benzyl (2E,6R)-6-{[(2R,3R,5R,6S)-3,5-dihydroxy-6-methyloxan-2-yl]oxy}hept-2-enoate], for which, in assay [2], the “percent inhibition relative to Stimulated of IL-6 expression” value is listed as “statistically significant inhibition”, the “percent inhibition relative to Stimulated of IL-8 expression” value is listed as “statistically significant inhibition” and the “percent inhibition relative to Stimulated of TNFα expression” value is “statistically significant inhibition”. In assay [3] (increasing concentrations), the “percent inhibition relative to Stimulated of TSLP expression” value was “statistically significant inhibition; also recorded: completely inhibited”; the “percent inhibition relative to Stimulated of IL-6 expression” value was “inhibited IL-6 expression in statistically significant, dose-dependent manner”; the “percent inhibition relative to Stimulated of MCP-1 expression” value is given as “inhibited MCP-1 expression in statistically significant manner; also recorded: only showed inhibition at the highest 100 μM concentration”.

Consider `CC(C)OC(=O)/C=C/CC[C@@H](C)O[C@@H]1O[C@@H](C)[C@H](O)C[C@H]1O` [Compound 8, isopropyl (R,E)-6-(((2R,3R,5R,6S)-3,5-dihydroxy-6-methyltetrahydro-2H-pyran-2-yl)oxy)hept-2-enoate], for which the “percent inhibition relative to Control” value in assay [1] is given as “inhibited IL-6 expression in statistically significant, dose-dependent manner”.

In the case of `C[C@@H]1O[C@@H](OCCC/C=C/C(=O)OC(C)(C)C)[C@H](O)C[C@H]1O` [Compound 11, tert-butyl (E)-6-(((2R,3R,5R)-3,5-dihydroxy-6-methyltetrahydro-2H-pyran-2-yl)oxy)hex-2-enoate], the “percent inhibition relative to Control” value in assay [1] is reported as “inhibited IL-6 expression in statistically significant, dose-dependent manner”. In addition, the “percent inhibition relative to Stimulated of MCP-1 expression” value in assay [3] (increasing concentrations) is recorded as “inhibited MCP-1 expression in statistically significant, dose-dependent manner”.

For the molecule `C[C@H](CCC1CC1C(=O)OC(C)(C)C)O[C@@H]1O[C@@H](C)[C@H](O)C[C@H]1O` (stereo partly drawn) [Compound 2, tert-butyl 2-[(3R)-3-{[(2R,3R,5R,6S)-3,5-dihydroxy-6-methyloxan-2-yl]oxy}butyl]cyclopropane-1-carboxylate], in assay [1], the “percent inhibition relative to Control” value is recorded as “inhibited IL-6 expression in statistically significant, dose-dependent manner”. Further, the “percent inhibition relative to Stimulated of Eotaxin expression” value in assay [4] is “statistically significant, complete inhibition”. Besides, the “percent inhibition relative to Stimulated of IL-6 expression” value in assay [3] (increasing concentrations) is on record as “inhibited IL6 expression in statistically significant manner”; in assay [3] (at 100 μM) it was “robust inhibition”. Also, the “percent inhibition relative to Stimulated of MCP-1 expression” value in assay [3] (increasing concentrations) is on record as “inhibited MCP-1 expression in statistically significant manner; also recorded: only showed inhibition at the highest 100 μM concentration”.

Take `C[C@H](CC/C=C/C(=O)OCc1ccncc1)O[C@@H]1O[C@@H](C)[C@H](O)C[C@H]1O` [Compound 6, pyridin-4-ylmethyl (2E,6R)-6-{[(2R,3R,5R,6S)-3,5-dihydroxy-6-methyloxan-2-yl]oxy}hept-2-enoate]: in assay [1], the “percent inhibition relative to Control” value is reported as “inhibited IL-6 expression in statistically significant, dose-dependent manner”. For the same molecule, in assay [4] (FIG. 12), the “percent inhibition relative to Stimulated of IL-33 expression” value was “statistically significant inhibition” and the “percent inhibition relative to Stimulated of TSLP expression” value is reported as “statistically significant inhibition”. The “percent inhibition relative to Stimulated of Eotaxin expression” value in assay [4] was “statistically significant inhibition”. In assay [4] (compound concentration series, FIG. 12), the “percent inhibition relative to Stimulated of IL-25 expression” value is “robust inhibition of IL-25 expression at 1 mM concentration”. Also, in assay [4] (even at 100 μM, FIG. 12), the “percent inhibition relative to Stimulated of IL-25 expression, level at which it topped out” value stood at 60%.

For `C[C@H](CC/C=C/C(=O)N1CCCC1)O[C@@H]1O[C@@H](C)[C@H](O)C[C@H]1O` [Compound 13, (R,E)-6-(((2R,3R,5R,6S)-3,5-dihydroxy-6-methyltetrahydro-2H-pyran-2-yl)oxy)-1-(pyrrolidin-1-yl)hept-2-en-1-one], the “percent inhibition relative to Control” value in assay [1] is listed as “inhibited IL-6 expression in statistically significant, dose-dependent manner”. Also, in assay [3] (increasing concentrations), the “percent inhibition relative to Stimulated of TSLP expression” value was “inhibited TSLP expression in statistically significant manner; also recorded: robust blocking” and the “percent inhibition relative to Stimulated of MCP-1 expression” value was “inhibited MCP-1 expression in statistically significant manner”. Also, the “percent inhibition relative to Stimulated of MCP-1 expression” value in assay [3] (increasing concentrations, listed as compound 13) is “robust blocking of MCP-1 expression starting at 1 mM”.

`C[C@H](CC/C=C/C(=O)OCc1cccnc1)O[C@@H]1O[C@@H](C)[C@H](O)C[C@H]1O` [Compound 5, pyridin-3-ylmethyl (2E,6R)-6-{[(2R,3R,5R,6S)-3,5-dihydroxy-6-methyloxan-2-yl]oxy}hept-2-enoate]: the “percent inhibition relative to Control” value in assay [1] is on record as “inhibited IL-6 expression in statistically significant, dose-dependent manner”.
